Among the data in PubChem BioAssay (NCI) are TGI and GI50 values, retold here.

Among the test systems are OVCAR-4 ovarian; UACC-62 melanoma; NCI-H460 lung; MOLT-4 leukemia; NCI-H522 lung; KM12 colon; SN12C renal; IGROV1 ovarian; HOP-92 NSCLC; SNB-19 CNS.
Common to all, as to assay: growth of human tumour cells (NCI), 48 h

Structures are written as SMILES.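 All cell lines were grown in 96-well plates and treated with compound for 48 hours. The concentration for 50% growth inhibition is given as GI50. TGI is the concentration that stops growth completely.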

As to `O=C1CNC(=O)N1`, the TGI in the assay with OVCAR-4 ovarian, with UACC-62 melanoma, with NCI-H460 lung, in the assay with MOLT-4 leukemia, with NCI-H522 lung and in the assay with KM12 colon was > 1120 µM throughout. In addition, the TGI is > 1120 µM with SN12C renal, > 1120 µM in the assay with IGROV1 ovarian, > 11.2 µM with HOP-92 NSCLC and > 1120 µM in the assay on SNB-19 CNS.

`COc1cc(CN(C)N2C(=O)c3cccc4cc([N+](=O)[O-])cc(c34)C2=O)cc(OC)c1OC`: the TGI in the assay on OVCAR-4 ovarian, in the assay on UACC-62 melanoma, in the assay with NCI-H460 lung, with MOLT-4 leukemia, with NCI-H522 lung and in the assay on KM12 colon was > 100 µM in each case. Besides, the TGI in the assay with SN12C renal, with IGROV1 ovarian, with HOP-92 NSCLC and with SNB-19 CNS was > 100 µM each time.

As for `CC1(C)CCCC2(C)[C@@H]1CC[C@]13C[C@](C)(CC[C@@H]21)[C@@H]3CO` (stereo partly specified), the TGI with OVCAR-4 ovarian, with UACC-62 melanoma, with NCI-H460 lung, in the assay on MOLT-4 leukemia, in the assay with NCI-H522 lung and in the assay on KM12 colon was > 100 µM each time. Besides, the TGI in the assay with SN12C renal, with IGROV1 ovarian, in the assay on HOP-92 NSCLC and with SNB-19 CNS was > 100 µM in each case.

Turning to `Cc1ccc(NCCO)cc1`, the TGI in the assay on OVCAR-4 ovarian, in the assay on UACC-62 melanoma, in the assay with NCI-H460 lung, in the assay with MOLT-4 leukemia, in the assay with NCI-H522 lung and in the assay with KM12 colon was > 100 µM in each case. Moreover, the TGI with SN12C renal, with IGROV1 ovarian, in the assay with HOP-92 NSCLC and in the assay with SNB-19 CNS was > 100 µM in each case.

On to `O=C(NC/C=C/CO)c1ccccc1`, for which the TGI in the assay on OVCAR-4 ovarian, in the assay on UACC-62 melanoma, with NCI-H460 lung, with MOLT-4 leukemia, in the assay on NCI-H522 lung and in the assay with KM12 colon was > 100 µM throughout. In addition, the TGI in the assay with SN12C renal, with IGROV1 ovarian and in the assay on SNB-19 CNS was > 100 µM each time.

As to `Fc1cc(C2=Nn3c(nnc3-c3cc(F)c(Cl)cc3Cl)SC2)c(Cl)cc1Cl`, the GI50 in the assay on OVCAR-4 ovarian is 34.5 µM; in the assay on UACC-62 melanoma it was 13.3 µM; in the assay with NCI-H460 lung, 17.6 µM; in the assay on MOLT-4 leukemia, 16.9 µM; with NCI-H522 lung, 24.1 µM; in the assay on KM12 colon it was 28.5 µM. The GI50 in the assay on SN12C renal is 18.4 µM; with IGROV1 ovarian it was 29.8 µM; in the assay with HOP-92 NSCLC, 11.3 µM; in the assay with SNB-19 CNS it was 22.7 µM. For the same molecule, the TGI was > 100 µM in the assay on OVCAR-4 ovarian; 38.6 µM with UACC-62 melanoma; > 100 µM in the assay on NCI-H460 lung; 74.2 µM with MOLT-4 leukemia; > 100 µM in the assay on NCI-H522 lung; 86.8 µM with KM12 colon. In addition, the TGI in the assay with SN12C renal was 55.7 µM; with IGROV1 ovarian, > 100 µM; with HOP-92 NSCLC, > 100 µM; in the assay on SNB-19 CNS, 93.4 µM.

As to `COc1ccc(-c2nnc3c4ccccc4sn23)cc1`, the TGI in the assay with OVCAR-4 ovarian, in the assay on UACC-62 melanoma, in the assay on NCI-H460 lung, with MOLT-4 leukemia, in the assay with KM12 colon and in the assay with SN12C renal was > 100 µM in each case. For the same molecule, the TGI in the assay on IGROV1 ovarian, in the assay on HOP-92 NSCLC and in the assay with SNB-19 CNS was > 100 µM each time.

Consider `O=c1n(Cc2ccccc2)c2ccccc2n1CC1CS1` (stereo unspecified), for which the TGI in the assay on OVCAR-4 ovarian, with UACC-62 melanoma, in the assay with MOLT-4 leukemia, in the assay on NCI-H522 lung, in the assay on KM12 colon and in the assay with SN12C renal was > 100 µM each time. The TGI in the assay with IGROV1 ovarian, in the assay on HOP-92 NSCLC and in the assay on SNB-19 CNS was > 100 µM each time.

Regarding `Cc1cc(C)c(S(=O)(=O)N(CCCCCCN)OCCCON(CCCCCCN)S(=O)(=O)c2c(C)cc(C)cc2C)c(C)c1`, the TGI in the assay with OVCAR-4 ovarian worked out at 3.38 µM; in the assay on UACC-62 melanoma, 3.15 µM; in the assay on NCI-H460 lung it was 3.07 µM; in the assay with NCI-H522 lung, 3.27 µM; in the assay on KM12 colon it was 4.35 µM; in the assay with SN12C renal it was 3.89 µM. For the same molecule, the TGI was 3.22 µM in the assay with IGROV1 ovarian, 2.96 µM with HOP-92 NSCLC and 3.01 µM in the assay with SNB-19 CNS.

Turning to `COc1ccc2c(c1)C(=O)/C(=C/c1ccccc1)C2`, the TGI in the assay on OVCAR-4 ovarian, in the assay with UACC-62 melanoma, in the assay on NCI-H460 lung, with MOLT-4 leukemia, in the assay on NCI-H522 lung and with KM12 colon was > 100 µM throughout. Also, the TGI in the assay on SN12C renal, with IGROV1 ovarian, in the assay on HOP-92 NSCLC and in the assay with SNB-19 CNS was > 100 µM throughout.

Turning to `CC12CCC3C(CCC4(O)C=CCCC34C=O)C1(O)CC(O)C2c1ccc(=O)oc1` (stereo unspecified), the TGI in the assay with OVCAR-4 ovarian was found to be 0.102 µM; in the assay on UACC-62 melanoma, 0.145 µM; with NCI-H460 lung it was 0.0716 µM; with MOLT-4 leukemia, 0.394 µM; in the assay on NCI-H522 lung, 0.0622 µM; in the assay with KM12 colon, 0.367 µM. Further, the TGI stood at 0.199 µM with SN12C renal, 0.35 µM with IGROV1 ovarian, 0.267 µM in the assay with HOP-92 NSCLC and 0.527 µM with SNB-19 CNS.

Regarding `CCNc1nc2c(=O)n(C)c(=O)n(C)c2s1`, the TGI with OVCAR-4 ovarian, in the assay with UACC-62 melanoma, with NCI-H460 lung, with MOLT-4 leukemia, with NCI-H522 lung and with KM12 colon was > 100 µM throughout. Besides, the TGI with SN12C renal, in the assay with IGROV1 ovarian, in the assay on HOP-92 NSCLC and in the assay on SNB-19 CNS was > 100 µM throughout.

Regarding `ClCc1nnc2n1-c1ccc(Cl)cc1SC2`, the TGI in the assay on OVCAR-4 ovarian came out at 12.6 µM; in the assay with UACC-62 melanoma, 8.51 µM; in the assay with NCI-H460 lung, 14 µM; with MOLT-4 leukemia, 3.98 µM; in the assay on NCI-H522 lung it was 3.21 µM; with KM12 colon it was 15.1 µM. Further, the TGI was 29.6 µM with SN12C renal, 8.09 µM in the assay on IGROV1 ovarian, 9.26 µM with HOP-92 NSCLC and 25.7 µM with SNB-19 CNS.
